According to patent US20030109418A1, “Methods for identifying compounds for inhibition of neoplastic lesions, and pharmaceutical compositions containing such compounds” (priority 1999, published 2003):
Where a name gives a salt, the structure may show the parent alone.

Legend:
[1] = system: HT-29 colon adenocarcinoma cells; assay: Apoptosis by DNA fragmentation assay in HT-29; format: cell-based, human; conditions: qualitative activity profile; also: key: −: Not active; +: Slightly active; ++: Moderately active; +++: Strongly active; ++++: Highly active
[2] = system: KNRK, Kidney (ras transformed); assay: Growth inhibition, SRB assay, KNRK; format: cell-based
[3] = system: PKG activity in SW480 colon cancer cells; assay: PKG assay of lysates of drug-treated SW480 cells; format: cell-based, human; conditions: SW480 treated 48 hrs; exisulind 200, 400, 600 μM; E4021 0.1, 1, 10 μM; with and without added cGMP
Source text: That sequence is known and described in the literature below. […] One way to bind the PDE5 sequences to a solid phase is to express those sequences as a fusion protein of the PDE5 sequence and one member of an amino acid binding pair, and chemically link the other member of that amino acid binding pair to a solid phase (e.g., beads). One binding pair that can be used is glutathione S-transferase (“GST”) and glutathione (“GSH”), with the GST being expressed as a fusion protein with the PDE5 sequence described above, and the GSH bound covalently to the solid phase. In this fashion, the PDE5 sequence/GST fusion protein can be bound to a solid phase simply by passing a solution containing the fusion protein over the solid phase, as described below.
To assay a liquid sample believed to contain PKG using the PDE5-bound solid phase described above, the sample and the solid phase are mixed with phosphorylation buffer containing ^32P-γ-ATP. The solution is incubated for 30 minutes at 30° C. to allow for phosphorylation of the PDE5 sequence by PKG to occur, if PKG is present. […]
For each control or drug cell lysate sample to be evaluated, the reaction is started by adding phosphorylation buffer containing 10 μCi ^32P-γ-ATP solution (200 μM ATP, 4.5 mM MgCl; 5 mM KH2PO4; 5 mM K2HPO4;) to each mixture. […]

[4] = Seven-day dose-range finding study in rats; format: in vivo, rat
[5] = system: aberrant crypt foci (ACF) in colon; assay: Azoxymethane-induced aberrant crypt foci model; format: in vivo, rat; conditions: for Mean ACF/colon (+ SE): free base, 5 weeks
Experimental: The growth inhibition IC50 value obtained for Compound I was 0.7 μM in the SW-480 cell line. […] This established rodent model of azoxymethane (“AOM”)-induced carcinogenesis was used to assess the effects of Compound I (free base and salt) on colon cancer development in vivo. ACF are precursors to colonic tumors, and ACF inhibition is predictive of chemo-preventive efficacy.
In the rats in this experiment, ACF initiation was achieved by two consecutive weekly injections of the carcinogen. Compound I was administered one week prior to ACF initiation and for the duration of the experiment. ACFs were scored after 5 weeks of treatment. Compound I was administered orally to male Fisher 344 rats in the rat chow. Daily food consumption (mg/kg body weight) varied over the course of the study, and therefore Compound I dose was expressed a grams per kg of diet to provide a basis of comparison between doses. […] The experimental groups gained less weight than the controls, which was indicative of bioavailability. However, the weight differences were less than 10% and not considered to affect ACF formation.
The free base of Compound I inhibited ACF formation as measured by a reduction of crypts per colon. With the exception of the low dose group (only 0.5 g/kg diet), the differences between treatment and control groups were substantial, and statistically significant in the case of the 1.0 and 2.0 g/kg diet group.

MDA-MB-231 = assay: Growth inhibition, neutral red assay, MDA-MB-231; format: cell-based, human; conditions: free base, five days
Experimental: (§1) Compound I's activity is not confined to activity against colon cancer cell lines or animal models of colon cancer. It has a broad range of anti-neoplastic effects in various neoplastic cell lines. Various types of human cancer cell lines were propagated under sterile conditions in RPMI 1640 medium with 10% fetal bovine serum, 2 mM L-glutamine and sodium bicarbonate. To determine growth inhibitory effects of Compound I, cells were seeded in 96-well plates at a density of 1000 cells per well. Twenty-four hours after plating, the cells were dosed with various concentrations of the free base of Compound I solubilized in DMSO (final concentration 0.1%). The effect of the drug on tumor cell growth was determined using the neutral red cytotoxicity assay following five days of continuous treatment. Neutral red is a dye that is selectively taken up by viable cells by an ATP-dependent transport mechanism.

CCRF-CEM = assay: Growth inhibition, neutral red assay, CCRF-CEM; format: cell-based; conditions: Homo sapiens, HCl salt
Experimental: as §1

RPMI-8226 = assay: Growth inhibition, neutral red assay, RPMI-8226; format: cell-based; conditions: Homo sapiens, HCl salt
Experimental: as §1

PANC-1 = assay: Growth inhibition, neutral red assay, PANC-1; format: cell-based; conditions: Homo sapiens, HCl salt
Experimental: as §1

Compound	Apoptosis [1]	IC50 [2] [µM]	PKG activity relative to control [3]	signs of toxicity, seven-day study ([4]; 50 mg/kg/day)	treatment-related effects, seven-day study ([4]; 500 mg/kg/day)	effects, seven-day study ([4]; 2000 mg/kg/day)	ACF % Control ([5]; 0.5 g/kg diet) [%]	Mean ACF/colon (+ SE) ([5]; 0.5 g/kg diet)	ACF % Control ([5]; 1 g/kg diet) [%]	Mean ACF/colon (+ SE) ([5]; 1 g/kg diet)	ACF % Control ([5]; 1.5 g/kg diet) [%]	Mean ACF/colon (+ SE) ([5]; 1.5 g/kg diet)	ACF % Control ([5]; 2.0 g/kg diet) [%]	Mean ACF/colon (+ SE) ([5]; 2.0 g/kg diet)	body weight differences versus controls ([5]; male Fisher 344 rats, drug in chow)	GI50 (MDA-MB-231; Homo sapiens, MDA-MB-231, 120 h) [µM]	GI90 μM, MDA-MB-231 (MDA-MB-231) [µM]	GI50 (CCRF-CEM) [µM]	GI50 (RPMI-8226) [µM]	GI50 (PANC-1) [µM]
CC1=C(CC(=O)O)c2cc(F)ccc2/C1=C\c1ccc(S(C)(=O)=O)cc1 [Exisulind, 5-fluoro-2-methyl-1-(p-methylsulfonylbenzylidene)-3-indenylacetic acid]	++	240	causes PKG activity to increase in a dose-dependent manner																	
CC1=C(CC(=O)NCc2ccccc2)c2cc(F)ccc2/C1=C\c1ccncc1 [Compound I, (Z)-5-fluoro-2-methyl-(4-pyridylidene)-3-(N-benzyl)indenylacetamide hydrochloride]				no observable signs of toxicity	increase in absolute and relative liver weights in female rats	labored breathing and/or abnormal respiratory sounds, decreased weights gains and food consumption in male rats, and increased liver weights in female rats	100	149 ± 14	75	111 ± 9	89	132 ± 4	72	107 ± 15	less than 10%	1.8	77.6	1.4	1.2	2.2
